# Measured values reported in US20060252918A1, “Use of hepatitis virus (hcv) p7 protein” (priority 2002, published 2006).
# T1: HISp7 (HCV p7 with 6-HIS linker) (Hepatitis C virus genotype 1b, UniProt O92972)
# T1 construct: the p7 protein of HCV is a 63 amino acid protein; GST (N, cleaved yes); made in house; host or cells: E. coli (pGEXHISp7 in pGEX4T1; DH5alpha is named for cloning)
# T1 sequence (O92972 747-809 limits assumed): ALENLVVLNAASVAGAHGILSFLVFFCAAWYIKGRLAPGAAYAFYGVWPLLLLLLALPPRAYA
# T2: HCV p7 (Hepatitis C virus genotype 1b, UniProt O92972)
# T2 construct: the p7 protein of HCV is a 63 amino acid protein; expressed in transfected cells; host or cells: Vero cells (T7-driven expression, lipofectamine transfection)
# T2 sequence (O92972 747-809 limits assumed): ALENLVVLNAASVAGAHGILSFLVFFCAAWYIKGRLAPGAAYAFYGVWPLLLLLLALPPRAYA
# What was measured:
# [1] = molecular target: T1, HISp7 (HCV p7 with 6-HIS linker); assay type: biochemical, hepatitis C virus 1B (J4 isolate)
# HCV p7 = molecular target: T2, HCV p7; assay type: cell-based
# [2] = molecular target: the molecule itself; test: self-association in HepG2 cell membranes
Molecule,inhibition of ion channel formation by HISp7 [1],inhibition of HA transport facilitated by HCV p7 (HCV p7),binding result [2]
NC12CC3CC(CC(C3)C1)C2 [amantadine],inhibits ion channel formation by HISp7 FIG. 9) in the micromolar range,HA transport is inhibited,–
"hepatitis C virus (HCV) p7 protein (other, mature; p7 expressed alone in hepatocyte-derived (HepG2) cells; The mammalian expression construct is not described; p7 is the 63-residue part of it) ALENLVVLNAASVAGAHGILSFLVFFCAAWYIKGRLAPGAAYAFYGVWPLLLLLLALPPRAYA",–,–,binds
